Assay results as given in US20250235465A1, “USE OF SODIUM TRANS-[TETRACHLORIDOBIS(1H-INDAZOLE)RUTHENATE(III)] TO AMELIORATE PROTEASOME INHIBITOR RESISTANCE” (Bold Therapeutics Inc., priority 2021, published 2025).
Like-named read-outs stand apart in the source and are kept apart here.

What was measured:
[1] = test system: OPM2 LR (lenalidomide resistant); details: 24 hours
Description: (§1) The luminescent readings obtained in the assay were used to measure the percentage of cell death following treatment with increasing doses of BOLD-100 for 24 hours. Each cell line was treated in triplicate and the average cell death was used to calculate the IC50 or […] inhibitory concentration dose in these cell lines using a nonlinear regression fit.
(§2) Proteasome inhibitors (PI) and immunomodulatory drugs (IMiD) are used as standards of care treatments in MM disease in the clinic. […] Specifically, the MM.1S cell line was developed to acquire partial resistance to proteasome inhibitors bortezomib (MM.1S BR) and carfilzomib (MM.1S CR) by treating the MM.1S cell line with increasing doses of the drugs for about 6 months and the OPM2 cell line was developed to acquire partial resistance to IMiD lenalidomide (OPM2 LR) and pomalidomide (OPM2 PR) by treating the OPM2 cell line with increasing doses of the drugs for about 6 months.

[2] = test system: OPM2; details: OPM2, 24 hours
Description: as §1, §2

[3] = test system: MM.1S
Description: as §1, §2

[4] = test system: OPM2 PR (pomalidomide resistant); details: read-out: BOLD-100 IC50, 24 hours, Example 2, FIG. 2B
Description: as §1, §2

[5] = test system: bone marrow cell line HS-5; details: bone marrow stromal cell line HS-5, FIG. 5
Description: (§3) Bone marrow stromal cells are understood to provide a protective environment for cells, insulating bone marrow cells from drug effects. […] To do this, a co-culture assay was carried out, in which MM cells were grown in co-culture with a bone marrow stromal cell line HS-5. MM cell lines adhere to stromal cells in culture and the stromal cells can provide a protective effect against drug induced apoptosis/growth inhibition. Dose response curves were generated for the PI-sensitive cell line MM.1 S, and the two PI resistant lines MM.1S BR and MM.1S CR in presence of HS-5 by standard CTG assay.

[6] = test system: MM.1S BR in presence of HS-5; details: MM.1S BR in co-culture with HS-5, FIG. 5
Description: as §3

[7] = test system: MM.1S CR in presence of HS-5; details: MM.1S CR in co-culture with HS-5, FIG. 5
Description: as §3

[8] = test system: MM.1S in presence of HS-5; details: MM.1S in co-culture with HS-5, FIG. 5
Description: as §3

[9] = test system: MM.1S BR (bortezomib resistant)
Source text: as §2

[10] = test system: MOLP8; details: MOLP8, 24 hours, Table 1
Description: as §1

[11] = test system: XG-1; details: XG-1, 24 hours, Table 1
Description: as §1

[12] = test system: XG-2; details: XG-2, 24 hours, Table 1
Description: as §1

[13] = test system: JJN3; details: JJN3, 24 hours, Table 1
Description: as §1

[14] = test system: KMS27; details: KMS27, 24 hours, Table 1
Description: as §1

[15] = test system: H1112; details: H1112, 24 hours, Table 1
Description: as §1

[16] = read-out: BOLD-100 IC50, 24 hours, Example 2, FIG. 2A

[Cl][Ru]([Cl])([Cl])[Cl].[Na+].c1ccc2[nH]ncc2c1.c1ccc2[nH]ncc2c1 [BOLD-100, Sodium trans-[tetrachloridobis(1H-indazole)ruthenate(III)]] was tested, and the “sensitivity to BOLD-100 compared to parental OPM2” value ([1]; FIG. 2B) was “higher sensitivity”, the IC50 ([1]; Table 1) was 108 µM and the IC50 ([2]; Table 1) was 130 µM. The IC50 ([2]; read-out: BOLD-100 IC50, Example 2, FIG. 2B) was 120 µM, the IC50 ([3]; 24 hours, Table 1) was 106 µM and the IC50 [3, 16] was 83 µM. The IC50 [4] was 51 µM, the impact on viability [5] was “minimal impact” and the impact on viability [6] was “negatively impact the viability”. The impact on viability [7] was “negatively impact the viability”, the impact on viability [8] was “negatively impact the viability” and the IC50 [9, 16] was 23 µM. For the same molecule, the IC50 ([9]; read-out: BOLD-100 IC50, 24 hours, FIG. 2A legend) was 23 µM, the IC50 [10] was 115 µM and the IC50 [11] was 49 µM. For the same molecule, the IC50 [12] was 54 µM, the IC50 [13] was “Not reached” and the IC50 [14] was 128 µM. It also gave an IC50 [15] of 72 µM.
